# Data published in paper PMC12281424, “A Rac-specific competitive inhibitor of guanine nucleotide binding reduces metastasis in triple-negative breast cancer” (Cell Reports Medicine, 2025).
# Columns and labels:
# MLK2(h) = MLK2(h) (Homo sapiens, UniProt Q02779); test: Kinase Profiler; format: biochemical
# Description: (§2) Blood cell counts, kinase profiler, safety screen, bacterial cytotoxicity, Ames, micronucleus assays were performed by the company Eurofins (France). The kinase profiler was performed by the company Eurofins (Discovery, Panlab and Cerep).
# ULK1(h) = ULK1(h) (Homo sapiens, UniProt O75385); test: Kinase Profiler; format: biochemical
# Description: as §2
# CLK4(h) = CLK4(h) (Homo sapiens, UniProt Q9HAZ1); test: Kinase Profiler; format: biochemical
# Description: (§3) The kinase profiler was performed by the company Eurofins (Discovery, Panlab and Cerep).
# [1] = system: other breast cancer cell lines and other types of cancer cell lines; test: Focus formation (clonogenic) assay; format: cell-based; details: 10 μM
# Description: (§1) Figure 5 A41 decreases growth and invasiveness of TNBC cells in vitro (A) Representative images of RAC-GTP levels (red) in MDA-MB-468 Luc cells in the absence (CTL) and presence of EHT1864, NSC23766, or A41 (1 h at 10 μM) (left). Luciferase (Luc, green) was used to detect the cells. RAC-GTP mean fluorescence intensity was quantified inside the cell area (right) (n = 31–37 cells from 3 independent experiments; ∗p < 0.05, ∗∗∗p < 0.001) (scale bars: 10 μm). […] (C) Quantification of colony number of indicated cancer cell lines in the presence of A41 (10 μM) expressed as the percentage of control in the absence of A41. Results shown are representative of N > 3 independent experiments. (D) Immunoblot analysis and corresponding quantification of AKT and P44/42 expression and phosphorylation (pAKT, p44/42) in MDA-MB-468 Luc cells in the absence (−) and presence of NSC23766 or A41 (1 h at 10^−5 M). Results shown are representative of 3 independent experiments. ∗∗p < 0.01 vs. untreated cells, ^###p < 0.001 vs. NSC23766-treated cells. (E) 3D invasion assay of MDA-MB-468 Luc and cancer-associated fibroblasts (CAFs) and corresponding quantification (scale bars: 200 μm). […]
# 1000 cells/well from the indicated cancer cell lines were seeded in 6-wells plates and allowed to grow 2 days before treatments. […] The area occupied by the cells was then quantified with ImageJ software. […]
# Opiate δ1 (OP1, DOP) = Opiate δ1 (OP1, DOP) (Homo sapiens, UniProt P41143); test: Safety screen; format: binding
# Description: Blood cell counts, kinase profiler, safety screen, bacterial cytotoxicity, Ames, micronucleus assays were performed by the company Eurofins (France).
# PI3K (p110a/p85a)(h) = PI3K (p110a/p85a)(h) (Homo sapiens, UniProt P42336); test: Kinase Profiler; format: biochemical
# Description: as §3
# Adrenergic β2 = Adrenergic β2 (Homo sapiens, UniProt P07550); test: Safety screen; format: binding
# Description: as §2
# CK2α1(h) = CK2α1(h) (Homo sapiens, UniProt P68400); test: Kinase Profiler; format: biochemical
# Description: as §3
# LATS1(h) = LATS1(h) (Homo sapiens, UniProt O95835); test: Kinase Profiler; format: biochemical
# Description: as §3
# ChaK1(h) = ChaK1(h) (Homo sapiens, UniProt Q96QT4); test: Kinase Profiler; format: biochemical
# Description: as §3
# Wee1B(h) = Wee1B(h) (Homo sapiens, UniProt P0C1S8); test: Kinase Profiler; format: biochemical
# Description: as §3
# MDA-MB-468 Luc cells = test: Focus formation (clonogenic) assay; format: cell-based
# Description: as §1
# 1000 cells/well from the indicated cancer cell lines were seeded in 6-wells plates and allowed to grow 2 days before treatments. […] The area occupied by the cells was then quantified with ImageJ software.
# TrkC(h) = TrkC(h) (Homo sapiens, UniProt Q16288); test: Kinase Profiler; format: biochemical
# Description: as §3
# RIPK2(h) = RIPK2(h) (Homo sapiens, UniProt O43353); test: Kinase Profiler; format: biochemical
# Description: as §3
# PDGFRα(D842V)(h) = PDGFRα(D842V)(h) (Homo sapiens, UniProt P16234, D842V); test: Kinase Profiler; format: biochemical
# Chain of PDGFRα(D842V)(h) (P16234 24-1089 D842V): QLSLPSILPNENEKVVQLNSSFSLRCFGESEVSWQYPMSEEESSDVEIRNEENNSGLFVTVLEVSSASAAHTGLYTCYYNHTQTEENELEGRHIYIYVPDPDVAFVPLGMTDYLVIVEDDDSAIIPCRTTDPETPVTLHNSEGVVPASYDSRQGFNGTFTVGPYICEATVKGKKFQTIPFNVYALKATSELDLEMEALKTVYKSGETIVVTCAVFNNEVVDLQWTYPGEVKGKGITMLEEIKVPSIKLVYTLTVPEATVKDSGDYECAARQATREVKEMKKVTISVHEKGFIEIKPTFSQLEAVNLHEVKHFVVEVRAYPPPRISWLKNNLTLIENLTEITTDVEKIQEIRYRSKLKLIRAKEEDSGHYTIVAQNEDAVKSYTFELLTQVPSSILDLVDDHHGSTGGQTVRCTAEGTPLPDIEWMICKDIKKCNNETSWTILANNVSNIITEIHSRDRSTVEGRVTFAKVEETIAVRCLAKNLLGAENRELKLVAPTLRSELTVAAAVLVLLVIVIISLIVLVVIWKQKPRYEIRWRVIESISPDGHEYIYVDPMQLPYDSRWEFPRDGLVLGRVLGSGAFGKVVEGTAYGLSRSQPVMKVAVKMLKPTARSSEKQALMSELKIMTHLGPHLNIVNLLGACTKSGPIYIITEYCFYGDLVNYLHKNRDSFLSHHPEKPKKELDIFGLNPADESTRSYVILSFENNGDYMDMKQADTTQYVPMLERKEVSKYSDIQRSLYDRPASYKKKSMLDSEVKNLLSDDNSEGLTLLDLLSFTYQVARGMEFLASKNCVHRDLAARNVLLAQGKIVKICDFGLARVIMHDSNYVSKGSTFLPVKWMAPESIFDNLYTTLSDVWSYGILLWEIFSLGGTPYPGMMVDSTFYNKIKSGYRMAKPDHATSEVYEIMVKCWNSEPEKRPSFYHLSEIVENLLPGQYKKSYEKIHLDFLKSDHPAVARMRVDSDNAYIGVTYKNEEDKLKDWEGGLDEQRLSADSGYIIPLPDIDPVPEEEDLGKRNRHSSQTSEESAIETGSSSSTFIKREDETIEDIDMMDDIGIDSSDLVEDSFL
# Description: as §3
# Chain of MLK2(h) (Q02779 whole entry): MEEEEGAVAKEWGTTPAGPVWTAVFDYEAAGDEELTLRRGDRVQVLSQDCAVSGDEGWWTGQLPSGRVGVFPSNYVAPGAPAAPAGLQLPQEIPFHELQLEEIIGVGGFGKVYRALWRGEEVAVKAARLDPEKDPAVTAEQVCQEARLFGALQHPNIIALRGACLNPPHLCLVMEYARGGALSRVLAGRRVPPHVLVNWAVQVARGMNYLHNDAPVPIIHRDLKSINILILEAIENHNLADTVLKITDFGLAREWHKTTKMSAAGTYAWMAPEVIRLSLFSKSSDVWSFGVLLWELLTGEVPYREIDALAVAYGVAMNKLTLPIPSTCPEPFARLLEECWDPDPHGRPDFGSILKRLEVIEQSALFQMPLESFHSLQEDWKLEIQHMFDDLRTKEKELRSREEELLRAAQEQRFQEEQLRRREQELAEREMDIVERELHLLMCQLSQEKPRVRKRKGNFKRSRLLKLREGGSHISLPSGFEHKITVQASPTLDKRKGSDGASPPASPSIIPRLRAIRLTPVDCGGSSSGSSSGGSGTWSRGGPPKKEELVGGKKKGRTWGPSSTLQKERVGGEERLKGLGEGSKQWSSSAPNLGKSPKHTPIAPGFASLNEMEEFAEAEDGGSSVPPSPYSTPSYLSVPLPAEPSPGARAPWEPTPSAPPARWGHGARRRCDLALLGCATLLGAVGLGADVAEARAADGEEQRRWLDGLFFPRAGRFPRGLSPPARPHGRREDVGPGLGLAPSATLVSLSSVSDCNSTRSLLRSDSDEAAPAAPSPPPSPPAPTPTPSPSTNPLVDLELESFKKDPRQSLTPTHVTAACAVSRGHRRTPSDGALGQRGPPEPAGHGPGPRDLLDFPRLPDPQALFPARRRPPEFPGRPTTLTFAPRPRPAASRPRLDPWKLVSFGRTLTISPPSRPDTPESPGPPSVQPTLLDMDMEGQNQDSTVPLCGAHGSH
# Chain of CK2α1(h) (P68400 whole entry): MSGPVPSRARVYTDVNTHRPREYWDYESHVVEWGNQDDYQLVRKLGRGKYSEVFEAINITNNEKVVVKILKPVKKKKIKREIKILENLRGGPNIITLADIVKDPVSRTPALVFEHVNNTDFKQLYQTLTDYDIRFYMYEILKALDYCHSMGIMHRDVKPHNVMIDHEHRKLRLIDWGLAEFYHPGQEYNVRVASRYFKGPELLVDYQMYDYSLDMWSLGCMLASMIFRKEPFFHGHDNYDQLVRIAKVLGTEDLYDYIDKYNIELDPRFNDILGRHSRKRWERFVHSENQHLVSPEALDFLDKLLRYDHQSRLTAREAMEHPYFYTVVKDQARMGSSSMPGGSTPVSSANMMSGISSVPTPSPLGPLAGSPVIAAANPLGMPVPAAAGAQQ
# Chain of ChaK1(h) (Q96QT4 whole entry): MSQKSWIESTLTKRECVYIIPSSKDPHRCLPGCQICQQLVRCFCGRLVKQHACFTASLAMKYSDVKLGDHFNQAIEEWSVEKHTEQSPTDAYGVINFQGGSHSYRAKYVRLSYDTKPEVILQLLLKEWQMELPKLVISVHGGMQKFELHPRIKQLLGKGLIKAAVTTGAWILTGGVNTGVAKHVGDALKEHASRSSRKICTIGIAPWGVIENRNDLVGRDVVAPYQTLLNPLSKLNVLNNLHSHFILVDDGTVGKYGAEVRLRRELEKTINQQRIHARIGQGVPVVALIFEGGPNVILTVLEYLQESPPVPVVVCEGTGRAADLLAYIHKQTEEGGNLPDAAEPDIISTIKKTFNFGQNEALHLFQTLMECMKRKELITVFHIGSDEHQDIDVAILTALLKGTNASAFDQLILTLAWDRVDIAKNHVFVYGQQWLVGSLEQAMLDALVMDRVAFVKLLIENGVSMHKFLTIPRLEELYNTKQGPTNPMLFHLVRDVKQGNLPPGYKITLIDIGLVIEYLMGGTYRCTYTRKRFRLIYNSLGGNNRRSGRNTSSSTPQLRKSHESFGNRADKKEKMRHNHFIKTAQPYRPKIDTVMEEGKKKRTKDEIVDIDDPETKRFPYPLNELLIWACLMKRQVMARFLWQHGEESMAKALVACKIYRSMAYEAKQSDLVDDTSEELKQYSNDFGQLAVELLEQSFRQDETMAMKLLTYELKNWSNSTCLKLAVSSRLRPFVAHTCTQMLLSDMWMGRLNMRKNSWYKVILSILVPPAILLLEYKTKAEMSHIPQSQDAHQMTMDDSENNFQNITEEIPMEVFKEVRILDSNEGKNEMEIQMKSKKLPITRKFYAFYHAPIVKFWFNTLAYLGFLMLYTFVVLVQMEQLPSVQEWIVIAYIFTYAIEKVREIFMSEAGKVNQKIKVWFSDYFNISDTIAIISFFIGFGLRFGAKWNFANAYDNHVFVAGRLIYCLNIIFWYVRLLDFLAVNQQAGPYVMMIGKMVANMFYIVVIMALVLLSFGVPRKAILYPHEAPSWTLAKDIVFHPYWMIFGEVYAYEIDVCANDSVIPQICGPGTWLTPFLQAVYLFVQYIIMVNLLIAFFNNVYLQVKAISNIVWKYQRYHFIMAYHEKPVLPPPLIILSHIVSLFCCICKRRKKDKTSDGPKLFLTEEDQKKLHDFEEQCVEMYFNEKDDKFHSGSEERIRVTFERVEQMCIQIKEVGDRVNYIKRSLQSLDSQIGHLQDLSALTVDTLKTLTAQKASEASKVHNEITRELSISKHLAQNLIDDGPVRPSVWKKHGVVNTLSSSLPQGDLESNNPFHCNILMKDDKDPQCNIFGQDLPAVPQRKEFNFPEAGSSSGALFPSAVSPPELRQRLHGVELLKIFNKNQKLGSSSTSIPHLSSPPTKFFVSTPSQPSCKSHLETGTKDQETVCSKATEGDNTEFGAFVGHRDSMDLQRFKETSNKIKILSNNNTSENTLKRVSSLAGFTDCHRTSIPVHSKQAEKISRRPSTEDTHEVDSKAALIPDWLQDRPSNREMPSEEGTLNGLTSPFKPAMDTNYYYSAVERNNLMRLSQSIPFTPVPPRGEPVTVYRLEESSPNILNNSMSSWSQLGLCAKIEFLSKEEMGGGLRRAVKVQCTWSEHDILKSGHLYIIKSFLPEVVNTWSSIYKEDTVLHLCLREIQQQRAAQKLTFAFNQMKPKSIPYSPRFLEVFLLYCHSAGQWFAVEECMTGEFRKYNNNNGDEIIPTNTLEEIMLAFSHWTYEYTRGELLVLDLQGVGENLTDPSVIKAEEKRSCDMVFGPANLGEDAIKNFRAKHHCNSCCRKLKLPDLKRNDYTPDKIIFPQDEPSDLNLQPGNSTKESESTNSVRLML
# Chain of RIPK2(h) (O43353 whole entry): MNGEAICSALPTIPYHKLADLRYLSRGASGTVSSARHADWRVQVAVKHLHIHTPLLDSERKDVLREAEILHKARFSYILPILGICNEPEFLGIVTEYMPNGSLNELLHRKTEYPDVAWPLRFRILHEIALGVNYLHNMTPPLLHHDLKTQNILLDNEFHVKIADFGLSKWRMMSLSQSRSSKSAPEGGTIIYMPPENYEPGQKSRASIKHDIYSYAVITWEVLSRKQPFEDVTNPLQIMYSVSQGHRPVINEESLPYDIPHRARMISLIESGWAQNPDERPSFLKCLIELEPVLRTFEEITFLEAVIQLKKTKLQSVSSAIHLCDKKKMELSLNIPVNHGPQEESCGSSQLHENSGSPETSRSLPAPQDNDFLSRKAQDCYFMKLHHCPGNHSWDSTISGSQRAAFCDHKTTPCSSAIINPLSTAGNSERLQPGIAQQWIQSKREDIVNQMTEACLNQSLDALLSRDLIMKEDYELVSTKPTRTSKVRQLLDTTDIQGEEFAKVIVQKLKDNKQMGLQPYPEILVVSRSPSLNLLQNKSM
compound,measurement,setting,value
COc1ccc(OC)c(NS(=O)(=O)c2ccc(NC(=O)CCSc3ccc(C)cc3)cc2)c1 [Compound A41],Activity(%),MLK2(h),109%
same,Activity(%),ULK1(h),106%
same,Activity(%),CLK4(h),102%
same,colony formation,[1],Inhibitory effect
same,% inh.,"Opiate δ1 (OP1, DOP)",6%
same,Activity(%),PI3K (p110a/p85a)(h),100%
same,% inh.,Adrenergic β2,5%
same,Activity(%),CK2α1(h),80%
same,Activity(%),LATS1(h),98%
same,Activity(%),ChaK1(h),104%
same,Activity(%),Wee1B(h),89%
same,IC50,"MDA-MB-468 Luc cells; dose-response curve, Figure 5B, read-out: IC50, colony formation",2100 nM
same,colony formation,MDA-MB-468 Luc cells; increasing concentrations,significantly inhibited colony formation in a dose-dependent manner
same,Activity(%),TrkC(h),104%
same,Activity(%),RIPK2(h),94%
same,Activity(%),PDGFRα(D842V)(h),112%
